# Reference: PubChem BioAssay AID1205 (EPA DSSTox, 2008)
# Active and inactive are the calls of the source.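 Rule for the calls: active = tumour findings in long-term animal cancer tests in more than one sex, species or organ; inactive = no tumour finding and more than one negative test.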
# Assay: DSSTox (CPDBAS) Carcinogenic Potency Database Summary MultiCellCall Results
# Conditions: animal carcinogenicity bioassays, multi-cell call summary
# Method in brief: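 Summary call drawn from chronic long-term cancer bioassays in rats, mice, hamsters, dogs and nonhuman primates, using the most positive result per sex-species. Score: multispecies=50, multisex=30, multisite=20, summed for combinations.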
row,Structure (SMILES),outcome
1,O=C1CCCCC1,inactive; multisex inactive; multispecies inactive
2,[Cl-].[Cl-].[Cl-].[Fe+3],inactive; multisex inactive
3,CC(=O)C(N=Nc1ccc(Cl)cc1Cl)C(=O)Nc1ccc(-c2ccc(NC(=O)C(N=Nc3ccc(Cl)cc3Cl)C(C)=O)c(C)c2)cc1C (stereo not given),inactive; multispecies inactive
4,Cc1ccc(C)c(N)c1,active; multisite active; multisex active; multispecies active
5,O=[N+]([O-])c1ccc2ccc3cccc4ccc1c2c34,active; multisite active
6,CC(C)(Oc1ccc(C2CCCc3ccccc32)cc1)C(=O)O (stereo not given),active; multisite active; multisex active
7,CCOc1ccc2c(c1)C(C)=CC(C)(C)N2,inactive; multisex inactive
8,CCOP(=S)(OCC)SC1OCCOC1SP(=S)(OCC)OCC (stereo not given),inactive; multisex inactive; multispecies inactive
9,NNC(=O)c1ccncc1,active; multisite active; multisex active; multispecies active
10,CC(C)(C)c1cc(CO)cc(C(C)(C)C)c1O,inactive; multisex inactive
11,O=[N+]([O-])c1cccc2cccnc12,active; multisex active
12,O=S(=O)(O)NC1CCCCC1,active; multisite active; multisex active
13,COc1ccc([N+](=O)[O-])cc1N,active; multisite active; multisex active; multispecies active
14,N=c1ccn2c(n1)O[C@H]1[C@H](O)[C@@H](CO)O[C@H]12,inactive; multisex inactive
15,Nc1ccc2oc3ccccc3c2c1,active; multisite active; multisex active
16,ClCCCl,active; multisite active; multisex active; multispecies active
17,CC(C)NCC(O)c1ccc(NS(C)(=O)=O)cc1 (stereo not given),inactive; multisex inactive; multispecies inactive
18,CCCCCCCCCCCCN=C(N)N,inactive; multisex inactive
19,Cc1cnc2ccc3c(nc(N)n3C)c2n1,active; multisite active; multisex active; multispecies active
20,ClCc1ccccn1,inactive; multisex inactive; multispecies inactive
21,CCC1(c2ccccc2)C(=O)NC(=O)NC1=O,active; multisex active
22,C[C@]12CC[C@H]3C(=CCc4cc(OS(=O)(=O)O)ccc43)[C@@H]1CCC2=O,inactive; multisex inactive
23,Nc1ccccc1C(=O)O,inactive; multisex inactive; multispecies inactive

row,Structure (SMILES),outcome
1,CC(O)CN(CCO)N=O (stereo not given),active; multisite active
2,CC(=O)Nc1nnc(-c2ccc([N+](=O)[O-])o2)s1,active; multisite active; multispecies active
3,CN(C)CCN(Cc1cccs1)c1ccccc1,inactive; multisex inactive
4,Cc1cc(O)c(C(C)(C)C)cc1Sc1cc(C(C)(C)C)c(O)cc1C,inactive; multisex inactive; multispecies inactive
5,O=C1CN(/N=C/c2ccc([N+](=O)[O-])o2)C(=O)N1,active; multisite active; multisex active; multispecies active
6,O=[N+]([O-])c1ccc(Oc2ccc(Cl)cc2Cl)cc1,active; multisite active; multisex active; multispecies active
7,O=c1cc(CO)occ1O,active; multisex active
8,CC1(C)[C@@H](OC2O[C@H](C(=O)O)[C@@H](O)[C@H](O)[C@H]2O[C@H]2O[C@H](C(=O)O)[C@@H](O)[C@H](O)[C@H]2O)CC[C@]2(C)[C@H]3C(=O)C=C4[C@@H]5C[C@@](C)(C(=O)O)CC[C@]5(C)CC[C@@]4(C)[C@]3(C)CC[C@@H]12 (stereo not given in full),inactive; multisex inactive
9,Nc1ccc(NCCO)c([N+](=O)[O-])c1,inactive; multisex inactive; multispecies inactive
10,C=O,active; multisite active; multisex active; multispecies active
11,COc1ccc([C@@H]2CC(=O)c3c(O)cc(O[C@@H]4O[C@H](CO[C@@H]5O[C@@H](C)[C@H](O)[C@@H](O)[C@H]5O)[C@@H](O)[C@H](O)[C@H]4O)cc3O2)cc1OC,inactive; multisex inactive
12,COC(=O)[C@H]1[C@H]2C[C@@H]3c4[nH]c5cc(OC)ccc5c4CCN3C[C@H]2C[C@@H](OC(=O)c2cc(OC)c(OC)c(OC)c2)[C@@H]1OC,active; multisite active; multisex active; multispecies active
13,CCOC(=O)C1OC1(C)c1ccccc1 (stereo not given),inactive; multisex inactive
14,Cc1cnc(NC(=O)C2=C(O)c3ccccc3S(=O)(=O)N2C)s1,inactive; multisex inactive
15,ClC1(Cl)C2(Cl)C3(Cl)C4(Cl)C(Cl)(Cl)C5(Cl)C3(Cl)C1(Cl)C5(Cl)C24Cl (stereo not given),active; multisite active; multisex active; multispecies active
16,CC1=C(C(=O)OC(C)C)C(c2cccc([N+](=O)[O-])c2)C(C(=O)OC2CN(C(c3ccccc3)c3ccccc3)C2)=C(N)N1 (stereo not given),inactive; multisex inactive; multispecies inactive
17,CNc1ncnc2nc[nH]c12,inactive; multisex inactive
18,C#C[C@]1(OC(C)=O)CC[C@H]2[C@@H]3CCC4=CC(=O)CC[C@@H]4[C@H]3CC[C@@]21C,active; multisite active; multispecies active
19,CS(=O)(=O)OCCCNCCCOS(C)(=O)=O,inactive; multisex inactive; multispecies inactive
20,CC(=O)NNC(C)=O,inactive; multisex inactive
21,CC(C)NCC(O)COc1cccc2ccccc12 (stereo not given),inactive; multisex inactive; multispecies inactive
22,O=[N+]([O-])c1cc(N(CCO)CCO)ccc1NCCO,inactive; multisex inactive; multispecies inactive
23,C[C@H](CCc1ccccc1)NC[C@H](O)c1ccc(O)c(C(N)=O)c1,inactive; multisex inactive

row,Structure (SMILES),outcome
1,Oc1ccccc1-c1ccccc1,active; multisite active; multisex active
2,CCn1cc(C(=O)O)c(=O)c2ccc(C)nc21,active; multisite active; multisex active
3,Cc1ncc([N+](=O)[O-])n1CCO,active; multisite active; multisex active; multispecies active
4,OC[C@@H](O)[C@@H](O)[C@H](O)[C@H](O)CO[C@H]1O[C@H](CO)[C@@H](O)[C@H](O)[C@H]1O,inactive; multisex inactive
5,COc1ccc(OC)c(/C=C/c2ccc(N)cc2)c1,active; multisite active; multispecies active
6,C=CCNN,active; multisite active; multisex active
7,Oc1cccc2cccnc12,inactive; multisex inactive; multispecies inactive
8,CCOC(=O)CC(SP(=O)(OC)OC)C(=O)OCC (stereo not given),inactive; multisex inactive; multispecies inactive
9,S=C(S)NCCNC(=S)S,inactive; multisex inactive
10,OCC1CO1 (stereo not given),active; multisite active; multisex active; multispecies active
11,CCCc1cc(=O)[nH]c(=S)[nH]1,active; multisite active; multisex active; multispecies active
12,CC1CN(N=O)CC(C)O1 (stereo not given),active; multisite active; multisex active
13,CC1=C(C(=O)OCCN(Cc2ccccc2)c2ccccc2)C(c2cccc([N+](=O)[O-])c2)C(P2(=O)OCC(C)(C)CO2)=C(C)N1 (stereo not given),inactive; multisex inactive; multispecies inactive
14,c1ccc(Nc2ccc3ccccc3c2)cc1,inactive; multisex inactive; multispecies inactive
15,O=C1CCc2ccccc2O1,active; multisite active; multisex active; multispecies active
16,Cc1ccc(N)cc1N,active; multisite active; multisex active; multispecies active
17,CCCCCCCCCC[N+](C)(C)[O-],inactive; multisex inactive
18,CC(C)CCCCCCOC(=O)c1ccccc1C(=O)OCCCCCCC(C)C,active; multisite active; multisex active; multispecies active
19,CN(N=O)C(N)=O,active; multisite active; multispecies active
20,Cc1cccc(C)c1NC(=O)CN1CCCC1=O,inactive; multisex inactive; multispecies inactive
21,Clc1cccc(-c2ccc(Cl)c(Cl)c2Cl)c1Cl,active; multisite active; multisex active; multispecies active
22,c1ccc(C2CO2)cc1 (stereo not given),active; multisex active; multispecies active
23,ClC(Cl)=C(c1ccc(Cl)cc1)c1ccc(Cl)cc1,active; multisex active; multispecies active

row,Structure (SMILES),outcome
1,O=C(O)CNCC(=O)O,inactive; multisex inactive
2,O=NN1CCC[C@H]1C(=O)O,inactive; multisex inactive
3,CN=C(NC#N)NCCSCc1nc[nH]c1C,inactive; multisex inactive; multispecies inactive
4,O=C(NCC1CCCCN1)c1cc(OCC(F)(F)F)ccc1OCC(F)(F)F (stereo not given),inactive; multisex inactive; multispecies inactive
5,CC[C@H]1OC(=O)[C@H](C)[C@@H](O[C@H]2C[C@@](C)(OC)[C@@H](O)[C@H](C)O2)[C@H](C)[C@@H](O[C@@H]2O[C@H](C)C[C@H](N(C)C)[C@H]2O)[C@](C)(O)C[C@@H](C)C(=O)[C@H](C)[C@@H](O)[C@]1(C)O,inactive; multisex inactive; multispecies inactive
6,C=CC,inactive; multisex inactive; multispecies inactive
7,CCCCCCCC/C=C\CCCCCCCC(=O)O,inactive; multisex inactive
8,CCCCC1C(=O)N(c2ccccc2)N(c2ccccc2)C1=O,active; multisite active; multisex active; multispecies active
9,C=CN1CCCC1=O,active; multisite active; multisex active
10,CN(C)C(=O)Nc1ccc(Cl)c(Cl)c1,inactive; multisex inactive
11,COP(=S)(OC)Oc1ccc([N+](=O)[O-])cc1,inactive; multisex inactive; multispecies inactive
12,CC(Cl)Cl,inactive; multisex inactive; multispecies inactive
13,Nc1cccc2c(N)cccc12,active; multisite active; multisex active; multispecies active
14,O=C(O)C(Cl)Cl,active; multisex active; multispecies active
15,CCCCC(CC)COC(=O)c1ccccc1C(=O)OCC(CC)CCCC (stereo not given),active; multisex active; multispecies active
16,Nc1ccc2nc3ccccn3c2n1,active; multisite active; multisex active; multispecies active
17,NC(=O)OCC(COC(N)=O)c1ccccc1,active; multisite active; multisex active; multispecies active
18,[N-]=[N+]=[N-],inactive; multisex inactive
19,C=CC=C,active; multisite active; multisex active; multispecies active
20,Cc1nnc2n1-c1sc(CCc3ccc(CC(C)C)cc3)cc1C(c1ccccc1Cl)=NC2C (stereo not given),inactive; multisex inactive
21,c1ccc2n[nH]nc2c1,inactive; multisex inactive; multispecies inactive
